Laboratory results taken from patent US5789422A, “Substituted arylalkylamines as neurokinin antagonists” (Schering Corporation, priority 1996, dated 1998).

Tests used:
[1] = molecular target: T1, human neurokinin 1 (NK1) receptor (Homo sapiens, UniProt P25103); assay: Neurokinin receptor binding assay, human NK1; details: CHO cell membranes, [3H]-Substance P, read-out: % Inhibition of NK1 at a dose of 1 μM
T1 construct: expressed in transfected cells; host or cells: CHO (Chinese hamster ovary) cells, membranes
Protocol: (§1) Chinese Hamster ovary (CHO) cells transfected with the coding regions for the human neurokinin 1 (NK1) of the human neurokinin 2 (NK2) receptors are grown in Dulbecco's minimal essential medium supplemented with 10% fetal calf serum, 0.1 mM non-essential amino acids, 2 mM glutamine, 100 units/ml of penicillin and streptomycin, and 0.8 mg of G418/ml at 37° C. in a humidified atmosphere containing 5% CO2.
(§2) Cells are detached from T-175 flasks with a sterile solution containing 5 mM EDTA in phosphate buffered saline. Cells are harvested by centrifugation and washed in RPMI media at […] for 5 minutes. The pellet is resuspended in Tris-HCl (pH7.4) containing 1 uM phsphoramidon and 4 ug/ml of chymostatin at a cell density of 30×10^6 cells/ml. The suspension is then homogenized in a Brinkman Polytron (setting 5) for 30-45 seconds. The homogenate is centrifuged at 800 x g for 5 min at 4° C. to collect unbroken cells and nuclei. The supernatant is centrifuged in a Sorvall RC5C at 19,000 rpm ([…]) for 30 min at 4° C. The pellet is resuspended, an aliquot is removed for a protein determination (BCA) and washed again. The resulting pellet is stored at -80° C.
(§3) To assay receptor binding, 50 μl of [^3 H]-Substance P (9-Sar, 11-Met) (specific activity 41 Ci/mmol) (Dupont-NEN) (0.8 nM for the NK-1 assay) or [^3 H]-Neurokinin A (specific activity 114 Ci/ mmole) (Zenca) (1.0 nM for the NK-2 assay) is added to tubes containing buffer (50 mM Tris-HCl (pH 7.4) with 1 mM MnCl2 and 0.2% Bovine Serum Albumin) and either DMSO or test compound. Binding is initiated by the addition of 100 μl of membrane (10-20 μg) containing the human NK-1 or NK-2 receptor in a final volume of 200 μl. After 40 minutes at room temperature, the reaction is stopped by rapid filtration onto Whatman GF/C filters which have been presoaked in 0.3% polyethylenimine. Filters are washed 2 times with 3 ml of 50 mM Tris-HCl (pH7.4). Filters are added to 6 mls of Ready-Safe liquid scintillation cocktail and quantified by liquid scintillation spectrometry in a LKB 1219 RackBeta counter. Non-specific binding is determined by the addition of either 1 μM of CP-99994 (NK-1) or 1 μM SR-48968 (NK-2) (both synthesized by the chemistry department of Schering-Plough Research Institute). IC50 values are determined from competition binding curves and Ki values are determined according to Cheng and Prusoff using the experimentally determined value of 0.8 nM for the NK-1 receptor and 2.4 nM for the NK-2 receptor.
(§4) % Inhibition is the difference between the percent of maximum specific binding (MSB) and 100%. The percent of MSB is defined by the following equation, wherein "dpm" is disintegrations per minute: [formula]

[2] = molecular target: T2, human neurokinin 2 (NK2) receptor (Homo sapiens, UniProt P21452); assay: Neurokinin receptor binding assay, human NK2; details: CHO cell membranes, [3H]-Neurokinin A, read-out: % Inhibition of NK2 at a dose of 1 μM
T2 construct: expressed in transfected cells; host or cells: CHO (Chinese hamster ovary) cells, membranes
T2 sequence (P21452 1-398): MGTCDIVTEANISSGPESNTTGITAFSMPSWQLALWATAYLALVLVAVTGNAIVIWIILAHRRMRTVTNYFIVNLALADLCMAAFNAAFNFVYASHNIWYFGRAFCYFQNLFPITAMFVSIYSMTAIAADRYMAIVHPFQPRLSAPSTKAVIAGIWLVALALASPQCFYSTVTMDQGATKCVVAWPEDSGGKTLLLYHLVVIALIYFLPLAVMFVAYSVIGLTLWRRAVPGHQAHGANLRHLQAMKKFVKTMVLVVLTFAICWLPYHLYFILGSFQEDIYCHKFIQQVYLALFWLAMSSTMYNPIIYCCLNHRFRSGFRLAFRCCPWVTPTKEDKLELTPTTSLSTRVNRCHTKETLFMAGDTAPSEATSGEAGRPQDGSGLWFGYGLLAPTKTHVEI
Protocol: as §1, §2, §3, §4

T1 sequence (P25103 whole entry): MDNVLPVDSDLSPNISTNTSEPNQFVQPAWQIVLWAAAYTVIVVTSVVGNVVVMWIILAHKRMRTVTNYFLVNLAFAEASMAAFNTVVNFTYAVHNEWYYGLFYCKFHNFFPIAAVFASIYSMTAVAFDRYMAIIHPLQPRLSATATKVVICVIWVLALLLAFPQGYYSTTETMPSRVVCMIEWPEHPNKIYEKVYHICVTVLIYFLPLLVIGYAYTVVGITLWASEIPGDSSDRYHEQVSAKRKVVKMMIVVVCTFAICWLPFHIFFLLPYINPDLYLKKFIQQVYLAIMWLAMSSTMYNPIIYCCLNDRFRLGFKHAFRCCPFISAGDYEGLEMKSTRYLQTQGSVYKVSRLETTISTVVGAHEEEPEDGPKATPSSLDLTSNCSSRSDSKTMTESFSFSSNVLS

Row | SMILES | inhibition at 1 µM [1] [%] | inhibition at 1 µM [2] [%]
1 | CN(C[C@H](c1ccc(Cl)c(Cl)c1)[C@@H](O)CN1CCC(O)(c2ccccc2)CC1)C(=O)c1ccccc1 (relative stereo) [Example 2] | 81 | 88
2 | CN(C[C@H](c1ccc(Cl)c(Cl)c1)[C@@H](CN1CCC(O)(c2ccccc2)CC1)OCc1cc(C(F)(F)F)cc(C(F)(F)F)c1)C(=O)c1ccccc1 (relative stereo) [Example 19] | 78 | 18
3 | COC(CN1CCC(O)(c2ccccc2)CC1)C(CNC(=O)OC(C)(C)C)c1ccc(Cl)c(Cl)c1 (stereo not shown) [Example 12] | 9 | 68
4 | CN(CC(C(=O)CN1CCC(O)(c2ccccc2)CC1)c1ccc(Cl)c(Cl)c1)C(=O)c1ccccc1 (stereo not shown) [Example 16] | 23 | 96
5 | CON=C(CN1CCC(O)(c2ccccc2)CC1)C(CN(C)C(=O)c1ccccc1)c1ccc(Cl)c(Cl)c1 (stereo not shown) [Example 18] | 1 | 15
